Columns and labels:
[1] = test system: Erk1/2; assay: Western blot of Erk1/2 phosphorylation in LnCAP cells; format: cell-based, human; conditions: for DHT-induced Erk1/2 phosphorylation: inhibitor 30 min (100 nM flutamide, 20 μM AG1478, 5 μM Erlotinib, 20 μM PP2, 20 μM galardin) before 25 nM DHT 30 min
Procedure: Thereafter, cells were treated with vehicle (0.1% DMSO) or inhibitors Galardin, PP2, AG1478 (Calbiochem), flutamide, or erlotinib (Sigma) for 30 minutes before stimulation with 0.1% ethanol (vehicle) or 25 nM DHT for 30 minutes.
PC3 or LnCAP cells were treated with non-targeting siRNA pool (ThermoFisher Scientific) or paxillin-specific siRNA according to manufacturer's instructions. Two sets of human paxillin siRNAs were used: 1) human paxillin siRNA (Santa Cruz Biotechnology) containing three target-specific 20-25 nucleotide siRNAs or 2) human paxillin siRNA ON-TARGET plus SMARTpoo1 (ThemoFisher Scientific) containing four siRNAs targeting the paxillin mRNA. […] For experiments involving constitutively active (“CA”) Raf (William Walker, University of Pittsburgh) or MEK (Melanie Cobb, University of Texas Southwestern Medical Center), cells were co-transfected with paxillin or nonspecific siRNAs and cDNAs encoding caRaf or caMEK.

[2] = test system: paxillin; assay: Western blot of paxillin phosphorylation in LnCAP cells; format: cell-based, human; conditions: for DHT-induced paxillin phosphorylation at all four sites (tyrosines 31/118, serines 83/126): AG1478 or 20 μM PP2 before DHT
Procedure: (§1) LnCAP and PC3 cell lines were obtained from ATCC and cultured in RPMI 1640 medium (Invitrogen) containing 10% FBS and 1% penicillin-streptomycin. For experiments involving pharmacological inhibitors, cells were treated overnight with serum-free, phenol red-free RPMI 1640 media. Thereafter, cells were treated with vehicle (0.1% DMSO) or inhibitors Galardin, PP2, AG1478 (Calbiochem), flutamide, or erlotinib (Sigma) for 30 minutes before stimulation with 0.1% ethanol (vehicle) or 25 nM DHT for 30 minutes.
(§2) Western blots were performed as described (Evaul and Hammes, “Cross-Talk Between G Protein-Coupled and Epidermal Growth Factor Receptors Regulates Gonadotropin-Mediated Steroidogenesis in Leydig Cells,” J. Biol. Chem. 283(41):27525-27533 (2008), which is hereby incorporated by reference in its entirety). Primary antibodies were: paxillin, paxillinphospho-Tyr118, paxillin-phospho-Tyr31, Akt1/2/3, Akt1/2/3 phospho-Ser473, EGFR at 1:1000 dilution, and EGFR phospho-Tyr845 (1:500) (Santa Cruz Biotechnology); paxillin phospho-Ser126 (Invitrogen); paxillin phospho-Ser83 (ECM Biosciences); p44/42-Erk1/2, phospho-p44/42-Erk1/2 (Thr202/[…]), phospho-Ser217/221-MEK1/2, src, src-phospho-Tyr416 (Cell Signaling Technology) at 1:1000 dilutions and f3-actin (1:5000, Millipore).

[3] = test system: PSA mRNA; assay: PSA mRNA expression by real time PCR in LnCAP cells; format: cell-based, human; conditions: 20 μM U0126 or 20 μM AG1478 30 minutes before 25 nM DHT 24 hours
Procedure: RNA was isolated with the RNeasy mini kit (Qiagen) according to manufacturer's instructions. Levels of Kallikrein-related peptidase-3 (KLK3, or prostate-specific antigen (“PSA”)), paxillin, cyclin D1, and GAPDH expression were analyzed by the A/A-Ct method using Taqman gene expression assay primers (assay ID# Hs99999905_ml-GAPDH, Hs02576345_ml-KLK3, Hs99999004_ml-CCND1, and Hs01104424-ml-PXN; Applied Biosystems) on an ABI StepOne plus real-time PCR machine.

[4] = test system: Src; assay: Western blot of Src phosphorylation in LnCAP cells; format: cell-based, human; conditions: 20 μM, 30 min before 25 nM DHT
Procedure: as §1, §2

[5] = test system: MEK; conditions: MLTC cells; 20 μM; cited from earlier work
[6] = test system: paxillin; assay: Western blot of paxillin phosphorylation in PC3 cells; format: cell-based, human
Procedure: FIGS. 8A-D illustrate that PMA-mediated Erk1/2 activation is paxillin-independent, but PMA-mediated proliferation still requires serine phosphorylation of paxillin. In FIG. 8A, paxillin (Pax) or non-targeting (Nsp) siRNA-treated LnCAP cells were serum-starved and treated with PMA (100 nM) or EGF (20 ng/ml) for 30 minutes. Western blots were performed for paxillin and total and phosphorylated Erk1/2. In FIG. 8B, serum-starved PC3 cells were pretreated with 0.1% DMSO or 20 μM U0126 ([…]) for 30 minutes before stimulation with PMA (100 nM) or EGF (20 ng/ml) for another 30 minutes. Thereafter, levels of paxillin and phosphorylated paxillin at tyrosine-118 (Pax p-Y118) and serine-126 (Pax p-S126) were detected by Western blot. In FIG. 8C, cell proliferation (MTT assay) of PC3 cells treated (24 hours) with 0.1% DMSO (M) or 100 nM PMA in the presence or absence of 20 μM U0126. In FIG. 8D, PC3 cells were initially transfected with Paxillin (Pax) or non-targeting (Nsp) siRNA. After 96 hours, media were removed, and cells were then either mock-transfected or transfected with wild-type paxillin (left panel) or paxillin mutated at tyrosines 31/118 (Y31A/Y118A, middle panel) or serines 83/126/130 (S83A/S126A/S130A, right panel). […] Cell proliferation was detected by MTT. […]

[7] = test system: PC3 cells; assay: MTT cell proliferation assay, PC3 cells; format: cell-based, human; conditions: 100 nM PMA 24 hours, 20 μM U0126
Procedure: (§3) PC3 or LnCAP cells were treated with non-targeting siRNA pool (ThermoFisher Scientific) or paxillin-specific siRNA according to manufacturer's instructions. Two sets of human paxillin siRNAs were used: 1) human paxillin siRNA (Santa Cruz Biotechnology) containing three target-specific 20-25 nucleotide siRNAs or 2) human paxillin siRNA ON-TARGET plus SMARTpoo1 (ThemoFisher Scientific) containing four siRNAs targeting the paxillin mRNA. The latter was used for all experiments described in the accompanying Examples, although results were similar with both pools. For experiments involving constitutively active (“CA”) Raf (William Walker, University of Pittsburgh) or MEK (Melanie Cobb, University of Texas Southwestern Medical Center), cells were co-transfected with paxillin or nonspecific siRNAs and cDNAs encoding caRaf or caMEK. After 72 hours, cells were treated overnight with serum-free, phenol red-free RPMI 1640 media and stimulated with 0.1% ethanol/DMSO (vehicle), 25 nM DHT (Steraloids), 20 ng/ml EGF (BD Biosciences), or 100 nM PMA (Sigma) for the times indicated for Western blots or 24 hours for MTT assays.
(§4) MTT assays were performed using a colorimetric assay cell proliferation kit (Roche Applied Science) according to the manufacturer's instructions.

[8] = test system: EGFR; assay: EGFR transactivation assay in A431 cells; format: cell-based
Procedure: A431 cells were used to detect DHT-mediated release of EGFR ligands from LnCAP cells. A431 cells (ATCC) were cultured in DMEM/F-12 (1:1) medium (Invitrogen) containing 10% FBS and 1% penicillin-streptomycin, serum-starved overnight, and then stimulated with medium from DHT−, DHT+Galardin−, or vehicle (0.1% ethanol)-treated LnCAP cells for 60 minutes. As controls, A431 cells were stimulated with DHT or media alone. Thereafter, A431 cells were isolated for Western blot analysis to detect phosphorylated and total EGFR.

[9] = target: prostate-specific membrane antigen (PSMA) (Homo sapiens, UniProt Q04609); conditions: cited from earlier work
[10] = test system: androgen receptors (AR); assay: Androgen receptor nuclear localization by fluorescence imaging; format: cell-based
Procedure: Cellular staining was carried out using fluorescence imaging for androgen receptors (AR) and DAPI. […] Furthermore, knockdown and rescue experiments confirm that phosphoserine-paxillin is the moiety regulating AR translocation to the nucleus, since the mutant lacking the Erk serine targets (S A) cannot sustain AR nuclear localization (FIG. 17F versus 17E). Importantly, leptomycin B, which prevents nuclear export through CRM, rescues the nuclear localization of the AR in paxillin-knockdown cells stimulated with DHT (FIG. 17D). […] The latter allows the AR to remain in the nucleus, bind DNA, and promote transcription.

[11] = test system: paxillin; assay: Subcellular localization of paxillin and phosphoserine-paxillin; format: cell-based; conditions: upon stimulation with DHT or EGF
Source text: The subcellular localization of paxillin versus phosphoserine-paxillin was first examined. As expected, paxillin is localized primarily in the cytoplasm in resting cells (FIG. 14, unstimulated). […] This confirms the model of FIG. 9C, which posits that phosphoserine-paxillin regulates nuclear processes. Therefore, a common AR-mediated transcriptional event was examined: expression of PSA mRNA. […] Furthermore, knockdown of endogenous paxillin in LnCAP cells prevented DHT-induced induction of PSA mRNA expression and promoter activity (FIGS. 9A and 15). […] Together, these studies further emphasize that paxillin regulates cross-talk between extranuclear kinase signaling and intranuclear transcription.

[12] = test system: LnCAP cells; assay: MTT cell proliferation assay, LnCAP cells; format: cell-based, human
Procedure: as §3, §4

Chain of prostate-specific membrane antigen (PSMA) (Q04609 whole entry): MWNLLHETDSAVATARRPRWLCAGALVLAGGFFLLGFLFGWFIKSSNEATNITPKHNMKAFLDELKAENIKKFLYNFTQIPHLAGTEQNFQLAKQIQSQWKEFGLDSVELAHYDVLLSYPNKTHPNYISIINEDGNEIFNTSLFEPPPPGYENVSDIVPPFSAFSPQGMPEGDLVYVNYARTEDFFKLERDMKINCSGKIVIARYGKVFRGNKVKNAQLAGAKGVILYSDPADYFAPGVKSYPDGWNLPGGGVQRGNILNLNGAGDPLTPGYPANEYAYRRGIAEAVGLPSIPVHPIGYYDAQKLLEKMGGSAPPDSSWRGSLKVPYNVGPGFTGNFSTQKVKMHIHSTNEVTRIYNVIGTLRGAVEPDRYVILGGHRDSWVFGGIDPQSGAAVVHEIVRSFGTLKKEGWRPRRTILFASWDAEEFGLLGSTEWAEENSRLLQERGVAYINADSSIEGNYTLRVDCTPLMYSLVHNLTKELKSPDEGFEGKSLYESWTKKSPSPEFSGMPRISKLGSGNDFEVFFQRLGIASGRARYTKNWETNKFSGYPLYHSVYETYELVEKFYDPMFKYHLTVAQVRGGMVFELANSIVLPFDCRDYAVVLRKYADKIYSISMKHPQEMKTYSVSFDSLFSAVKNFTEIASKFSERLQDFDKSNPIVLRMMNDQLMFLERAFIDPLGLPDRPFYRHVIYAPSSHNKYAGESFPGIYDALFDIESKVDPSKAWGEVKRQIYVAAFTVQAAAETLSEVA

CC(C)(C)n1nc(-c2ccc(Cl)cc2)c2c(N)ncnc21 [PP2]
DHT-induced Erk1/2 phosphorylation [1]: blocked | DHT-induced paxillin phosphorylation at all four sites (tyrosines 31/118, serines 83/126) [2]: abrogated

COc1cc2ncnc(Nc3cccc(Cl)c3)c2cc1OC [AG1478]
DHT-induced expression of PSA mRNA [3]: abrogated | DHT-induced Src phosphorylation [4]: blocked | EGF-induced Erk activation ([1]; 20 μM AG1478, EGF 20 ng/ml): specifically blocks | FGF-induced Erk activation ([1]; 20 μM AG1478, FGF 25 ng/ml): does not block | DHT-induced Erk1/2 phosphorylation [1]: blocked | EGF but not FGF-induced MEK activation [5]: specifically blocks | DHT-induced paxillin phosphorylation at all four sites (tyrosines 31/118, serines 83/126) [2]: abrogated

CCCCCCCCCCCCCC(=O)O[C@@H]1[C@@H](C)[C@@]2(O)[C@@H](C=C(CO)C[C@]3(O)C(=O)C(C)=C[C@@H]23)[C@@H]2C(C)(C)[C@]12OC(C)=O [PMA]
paxillin phosphorylation (tyrosine and serine) ([6]; PMA 100 nM or EGF 20 ng/ml, 30 minutes): only promoted serine phosphorylation

C#Cc1cccc(Nc2ncnc3cc(OCCOC)c(OCCOC)cc23)c1 [Erlotinib]
DHT-induced Erk1/2 phosphorylation [1]: blocked

N#CC(=C(/N)Sc1ccccc1N)/C(C#N)=C(\N)Sc1ccccc1N [U0126]
DHT-induced expression of PSA mRNA [3]: abrogated | PMA-induced proliferation of PC3 cells [7]: blocked | PMA-induced serine phosphorylation of paxillin ([6]; 20 μM U0126): blocked | DHT-induced phosphorylation of paxillin at serines 83/126 ([2]; 20 μM U0126): blocked

CNC(=O)[C@H](Cc1c[nH]c2ccccc12)NC(=O)[C@@H](CC(=O)NO)CC(C)C [galardin]
DHT-induced Erk1/2 phosphorylation [1]: block | ability of medium from DHT-treated LnCAP cells to activate EGF receptor signaling in A431 cells ([8]; 20 μM galardin added to DHT (25 nM)-treated LnCAP cells): blocked

Aptamer A10-3: RNA aptamer which binds specifically to PSMA (GGGAGGACGAUGCGGAUCAGCCAUGUUUACGUCACUCCUUGUCAAUCCUCAUCGGC; listed as RNA, chemistry not given here)
binding to PSMA [9]: binds specifically

CCC(=C/[C@H](C)C/C=C/C(C)=C/[C@@H](C)C(=O)[C@@H](C)[C@H](O)[C@@H](C)C/C(C)=C/C(=O)O)/C=C/[C@@H]1OC(=O)C=C[C@@H]1C [leptomycin B]
nuclear localization of the AR in paxillin-knockdown cells stimulated with DHT ([10]; leptomycin B prevents nuclear export through CRM): rescues

C[C@]12CCC(=O)C[C@@H]1CC[C@@H]1[C@@H]2CC[C@]2(C)[C@@H](O)CC[C@@H]12 [DHT]
localization of total paxillin (T-Pax) [11]: relocalizes the nucleus | share of phosphoserine-paxillin (PS-PAX) in the nucleus [11]: nearly all | LnCAP proliferation by both MTT and BrdU incorporation ([12]; 0.1-100 nM DHT): promoted | cell proliferation (MTT) ([12]; LnCAP, DHT 25 nM or EGF 20 ng/ml, 24 hours): significantly stimulated | AR nuclear localization ([10]; DHT-treatment): promotes | Erk1/2 activation from 15 to 120 minutes ([1]; 25 nM DHT or 20 ng/ml EGF): induced | Erk1/2 phosphorylation/activation ([1]; 25 nM DHT, 30 minutes): significantly induced | EGF receptor activation in A431 cells, direct stimulation ([8]; DHT alone (25 nM), no LnCAP cells): did not promote | EGF receptor phosphorylation in A431 cells by medium from treated LnCAP cells ([8]; medium from 25 nM DHT-treated LnCAP cells, 60 minutes): increased | phosphorylation of paxillin at tyrosines 31/118 and serines 83/126 ([2]; 25 nM DHT, 30 minutes): triggered

B1: Aptamer A10: RNA aptamer which binds specifically to PSMA (nucleic acid)
chain: GGGAGGACGAUGCGGAUCAGCCAUGUUUACGUCACUCCUUGUCAAUCCUCAUCGGCAGACGACUCGCCCGA
modifications: listed as RNA, chemistry not given here
binding to PSMA [9]: binds specifically

B2: Aptamer A9: RNA aptamer which binds specifically to PSMA (nucleic acid)
chain: GGGAGGACGAUGCGGACCGAAAAAGACCUGACUUCUAUACUAAGUCUACGUUCCCAGACGACUCGCCCGA
modifications: listed as RNA, chemistry not given here
binding to PSMA [9]: binds specifically

Source: patent publication US20130136753A1, “PAXILLIN AS A THERAPEUTIC OR DIAGNOSTIC MARKER FOR CANCER” (UNIVERSITY OF ROCHESTER, priority 2010, published 2013)
